The values below come from PMC6272674, “Selected Compounds Structurally Related to Acyclic Sesquiterpenoids and Their Antibacterial and Cytotoxic Activity” (Molecules, 2015).

One data set in a line: MTT viability, HT29. It is filed as cell-based, human. The settings on record: human, HT29 colorectal adenocarcinoma cells, 1000 µM (IC50 exceeded 1000 µM), read-out: viability ± standard deviation at 1000 µM. The procedure: (§1) Cell lines and in vitro culture conditions: The human promyelocytic leukaemia cell line HL-60 was obtained from the Centre of Molecular and Macromolecular Biology in Łódź, Poland and was cultured in RPMI 1640 medium with 20% heat-inactivated fetal bovine serum (FBS). To reduce spontaneous differentiation, the cells were never allowed to exceed a concentration of 1.0 × 10^6 cells/mL. The human keratinocyte cell line HaCaT was obtained from Cell Lines Service, Germany (CLS) and cultured in DMEM medium with 10% FBS. Human colorectal adenocarcinoma HT29 and normal epithelial IEC-6 cell lines (from ATCC) were cultured in DMEM medium with 10% FBS. The human skin melanoma cell line MEWO (from CLS) was cultured in DMEM:F12 supplemented with 2 mM L-glutamine and 10% FBS. Human fibroblasts from gingiva isolated from original tissue, HFIB-G, (from Provitro) were cultured in Quantum 333 (from Immunique). The media were supplemented with 100 U/mL penicillin and 100 µg/mL streptomycin; all media components were obtained from Life Technologies. The adherent cell lines used in the studies were seeded on microplates before they exceeded 80% of confluence. Cells were cultured at 37 °C in 5% CO2 air atmosphere/95% air atmosphere.
(§2) Cytotoxic activity: The cells (the density for HL-60 was 0.5 × 10^4 cells/100 µL, otherwise it was 1 × 10^4 cells/100 µL) were plated into each well of 96-well microtiter plates and, after their attachment to the plate surface, treated with 10 µL of the indicated concentrations of compounds for 24 h. Viability was determined by MTT assay following the treatment. MTT (3-[4.5-dimethylthiazol-2-yl]-2.5-diphenyltetrazolium bromide; Sigma, St. Louis, MO, USA) solution was added to each well and incubated for another 4 h. The resulting MTT-formazan product was dissolved by the addition of lysis buffer (20% SDS and 50% DMF). The amount of formazan was determined by measuring absorbance at 570 nm with a Synergy 2 microplate reader (BioTek, Winooski, VT, USA) operated by the Gen5 program. The experiments were conducted three times with five replications. The results are expressed as an optical density ratio of the treatment to control. All data are presented as means ± SD.

Data set [1] deals with Acinetobacter baumannii ATCC 19606. Also on record: method as in doi:10.1002/ffj.3238. The settings on record: data presented by the authors before; cited from earlier work.
For data set [2], the system named is Enterococcus faecalis ATCC 51299. Set-up: method as in doi:10.1002/ffj.3238. The settings on record: data presented by the authors before; cited from earlier work.
The test system of data set [3] is Enterococcus faecium ATCC 35667. Set-up: method as in doi:10.1002/ffj.3238. The settings on record: data presented by the authors before; cited from earlier work.
A further data set in a line: MTT viability, IEC6. The format is cell-based. To be noted: rat, IEC-6 small intestine epithelial cells, 1000 µM (IC50 exceeded 1000 µM), read-out: viability ± standard deviation at 1000 µM. The procedure:
as §1, §2

For data set [4], the system named is Klebsiella pneumoniae ATCC 700603. Set-up: method as in doi:10.1002/ffj.3238. The settings on record: data presented by the authors before; cited from earlier work.
Data set [5] has as its system Escherichia coli ATCC 25922. Also on record: method as in doi:10.1002/ffj.3238. The settings on record: data presented by the authors before; cited from earlier work.
For data set [6], the system named is Promyelocytic Leukaemia HL-60. In words: MTT viability, HL-60. The format is cell-based, human. To be noted: HL-60, MTT, range 10–1000 µM, read-out: half maximal inhibitory concentration (IC50), interpolated. As for the experimental part:
as §1, §2

The next data set in a line: MTT viability, HFIG. It is filed as cell-based, human. The settings on record: human, HFIG (HFIB-G) gingival fibroblasts, 1000 µM (IC50 exceeded 1000 µM), read-out: viability ± standard deviation at 1000 µM. As for the experimental part: as §1, §2
The nature of another data set: MTT viability, HaCaT. To be noted: human, HaCaT keratinocytes, 1000 µM (IC50 exceeded 1000 µM), read-out: viability ± standard deviation at 1000 µM. The format is cell-based, human. The procedure:
as §1, §2

Another data set in a line: MTT viability, MEWO. It is filed as cell-based, human. To be noted: human, MEWO malignant melanoma cells, 1000 µM (IC50 exceeded 1000 µM), read-out: viability ± standard deviation at 1000 µM. As for the experimental part: as §1, §2
In data set [7] the test system is Staphylococcus aureus ATCC 43300. Set-up: method as in doi:10.1002/ffj.3238. The settings on record: data presented by the authors before; cited from earlier work.
Data set [8] concerns Escherichia coli ATCC 25922. In words: Micro-dilution broth MIC, Escherichia coli. The format is cell-based. The settings on record: ATCC25922, 24 h, 37 °C, read-out: Minimum Inhibitory Concentrations MIC. As for the experimental part:
(§3) The standard strains, Gram-positive: Staphylococcus aureus ATCC […], Enterococcus faecalis Van B ATCC 51299 and Enterococcus faecium VA sensitive ATCC 35667, and Gram-negative: Escherichia coli ATCC 25922, Klebsiella pneumoniae ATCC 700603 and Acinetobacter baumannii ATCC 19606, came from a collection of the Environmental Biology Department, Medical University of Łódź. The standard strains were cultivated in Columbia Agar Medium and incubated at 37 °C for 24 h in aerobic conditions.
(§4) The antibacterial activity of the racemates and E/Z-mixtures was investigated using the micro‑dilution broth method. The compounds were diluted in ethanol. This stock solution was mixed with 100 µL of Mueller-Hinton broth to obtain concentrations from 10 µg/mL to 80 µg/mL. The mixtures were then transferred to 96-well microtiter plates. The microbial suspension was standardised to a cell density of 1.5 × 10^8 CFU, which was equal to an optical density of 0.5 on the Mc Farland scale by a bio-Merieux densitometer; one well was filled with broth only to act as a control for strain growth.
On the technique in general: Broth dilution looks for growth in wells or tubes with falling amounts of substance.

In data set [9] the test system is Staphylococcus aureus ATCC 43300. In words: Micro-dilution broth MIC, Staphylococcus aureus. The settings on record: ATCC43300, 24 h, 37 °C, read-out: Minimum Inhibitory Concentrations MIC. The format is cell-based. The procedure:
as §3, §4

Data set [10] has as its system Enterococcus faecium ATCC 35667. In words: Micro-dilution broth MIC, Enterococcus faecium. The format is cell-based. To be noted: ATCC35667, 24 h, 37 °C, read-out: Minimum Inhibitory Concentrations MIC. As for the experimental part: as §3, §4
The next data set has as its system Fibroblasts HFIG. In words: MTT viability, HFIG. To be noted: Homo sapiens, Fibroblast, 24 h, range 10–1000 µM, read-out: half maximal inhibitory concentration (IC50), interpolated. It is filed as cell-based, human. As for the experimental part: as §1, §2
For data set [11], the system named is Enterococcus faecalis ATCC 51299. Briefly: Micro-dilution broth MIC, Enterococcus faecalis. The format is cell-based. To be noted: ATCC51299, 24 h, 37 °C, read-out: Minimum Inhibitory Concentrations MIC. The procedure: as §3, §4
In another data set the test system is Keratinocytes HaCaT. In words: MTT viability, HaCaT. The format is cell-based, human. The settings on record: Homo sapiens, 24 h, range 10–1000 µM, read-out: half maximal inhibitory concentration (IC50), interpolated. The procedure:
as §1, §2

Another data set has as its system Malignant Melanoma MEWO. Briefly: MTT viability, MEWO. It is filed as cell-based, human. The settings on record: Homo sapiens, 24 h, range 10–1000 µM, read-out: half maximal inhibitory concentration (IC50), interpolated. The procedure:
as §1, §2

Data set [12] deals with Klebsiella pneumoniae ATCC 700603. In words: Micro-dilution broth MIC, Klebsiella pneumoniae. The settings on record: ATCC700603, 24 h, 37 °C, read-out: Minimum Inhibitory Concentrations MIC. The format is cell-based. The procedure:
as §3, §4

For data set [13], the system named is Acinetobacter baumannii ATCC 19606. Briefly: Micro-dilution broth MIC, Acinetobacter baumannii. The format is cell-based. The settings on record: ATCC19606, 24 h, 37 °C, read-out: Minimum Inhibitory Concentrations MIC. As for the experimental part: as §3, §4

Structures are written as SMILES. pIC50: −log10 of the molar value. Values after ≈ are worked out from the molar mass of the structure shown. Where two headings read alike, the source gives them in different places.

One may read the viability as a read-out of living cells in per cent, often relative to untreated cells. Regarding `C=CC(C)(O)CCC=C(C)C(C)CCC=C(C)C` (stereo not shown) [Compound 12], the viability at 24 h, 1000 µM in the data set “MTT viability, HT29” stood at 97%; in “MTT viability, IEC6” it was 73%; in the data set “MTT viability, HFIG”, 110%; in the data set “MTT viability, HaCaT”, 101%; in the data set “MTT viability, MEWO” it was 97%. The “Minimum Inhibitory Concentrations MIC” value in [1] is 26 µg/mL; in data set [2] it was 46 µg/mL; in [3] it was 42 µg/mL; in data set [4], 28 µg/mL; in data set [5] it was 40 µg/mL; in [7], 48 µg/mL. Moreover, in data set [6] (Homo sapiens, HL-60, 24 h), the pIC50 is 3.30.

For the compound `C=CC(C)(O)CCC=CC(C)CCC=C(C)C` (stereo not shown) [Compound 13], the viability at 24 h, 1000 µM in “MTT viability, HT29” was found to be 99%; in “MTT viability, IEC6” it was 96%; in the data set “MTT viability, HFIG”, 87%; in “MTT viability, HaCaT”, 87%; in “MTT viability, MEWO”, 83%. The “Minimum Inhibitory Concentrations MIC” value in data set [1] was 22 µg/mL; in data set [2], 42 µg/mL; in data set [3] it was 38 µg/mL; in [4] it was 20 µg/mL; in data set [5], 40 µg/mL; in data set [7], 46 µg/mL. Besides, the pIC50 in data set [6] (Homo sapiens, HL-60, 24 h) was 3.40.

As to `C=CC(C)(O)CCC=C(C)C(C)CCCC(C)C` (stereo not shown) [Compound 14], the viability at 24 h, 1000 µM in “MTT viability, HT29” was 112%; in the data set “MTT viability, IEC6” it was 65%; in “MTT viability, HFIG” it was 99%; in “MTT viability, HaCaT”, 106%; in the data set “MTT viability, MEWO”, 99%. Also, the “Minimum Inhibitory Concentrations MIC” value is 28 µg/mL in data set [1]; 38 µg/mL in data set [2]; 36 µg/mL in data set [3]; 18 µg/mL in data set [4]; 38 µg/mL in [5]; 48 µg/mL in data set [7]. For the same compound, the pIC50 in data set [6] (Homo sapiens, HL-60, 24 h) was 3.12.

For `C=CC(C)(O)CC(C)CCC=C(C)C` (stereo not shown) [Compound 15], the viability at 24 h, 1000 µM in the data set “MTT viability, HT29” was found to be 104%; in the data set “MTT viability, IEC6”, 110%; in “MTT viability, HFIG”, 96%; in “MTT viability, HaCaT” it was 90%; in the data set “MTT viability, MEWO” it was 104%. For the same compound, the “Minimum Inhibitory Concentrations MIC” value in data set [1] is 16 µg/mL; in data set [2] it was 48 µg/mL; in data set [3], 38 µg/mL; in data set [4] it was 16 µg/mL; in data set [5] it was 28 µg/mL; in data set [7], 46 µg/mL. In addition, in data set [6] (Homo sapiens, HL-60, 24 h), the pIC50 was 3.12.

In the case of `C=CC(C)(O)CCC(C)CCC=C(C)C` (stereo not shown) [Compound 16], the viability at 24 h, 1000 µM was 102% in “MTT viability, HT29”; 113% in “MTT viability, IEC6”; 106% in the data set “MTT viability, HFIG”; 89% in the data set “MTT viability, HaCaT”; 100% in the data set “MTT viability, MEWO”. In addition, the “Minimum Inhibitory Concentrations MIC” value was 22 µg/mL in data set [1]; 38 µg/mL in data set [2]; 36 µg/mL in data set [3]; 24 µg/mL in data set [4]; 32 µg/mL in data set [5]; 48 µg/mL in data set [7]. Also, the pIC50 was 3.02 in [6] (24 h) and around 3.00 in data set [6] (Homo sapiens, HL-60, 24 h).

For `CC(C)=CCCC(C)=CCCC(C)=CC=O` [Farnesal (3), farnesal, reference compound], the MIC in [8] worked out at 46 µg/mL (≈ 209 µM); in data set [9], 24 µg/mL (≈ 109 µM); in [10] it was 36 µg/mL (≈ 163 µM); in data set [11], 22 µg/mL (≈ 99.8 µM); in data set [12], 44 µg/mL (≈ 200 µM); in [13], 36 µg/mL (≈ 163 µM). The viability at 24 h, 1000 µM came out at 110% in “MTT viability, HT29” and 85% in “MTT viability, IEC6”. In addition, the pIC50 in data set [6] (Homo sapiens, HL-60, 24 h) was 3.44; in the data set with Fibroblasts HFIG, 3.19; in the data set with Keratinocytes HaCaT it was 3.15; with Malignant Melanoma MEWO it was 3.33.
